In brackets after ≈: the same amount, converted by molar mass. Where two headings read alike, the source gives them in different places.

Experiment [1] deals with HCMV recombinant mutant virus. Nature of the experiment: microbe, parasite or virus in culture. Format: cell-based, human cytomegalovirus. The settings on record: Human betaherpesvirus 5, read-out: IC50 (ug/ml) HCMV. The method, boiled down: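 Human foreskin fibroblasts were infected with a recombinant HCMV carrying a beta-glucuronidase gene under a viral promoter, in the presence of compound. At 96 h post-infection, lysate beta-glucuronidase activity was read colorimetrically or fluorometrically as a replication marker. IC50 came from the compound dose range.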

A further experiment deals with HSV-1. Put plainly: HSV antiviral (ELISA) assay in Vero cells. Format: cell-based, herpes simplex virus type 1. The settings on record: read-out: IC50 (ug/ml) HSV. The method in brief:
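Vero cells in DMEM/2% FBS treated with compound 30 min before HSV-1 infection (MOI 0.006), ~24 h at 37 °C. Viral glycoprotein D measured by cell ELISA with β-galactosidase-linked secondary and fluorogenic methylumbelliferyl galactoside (ex 365/em 450 nm); IC50 versus no-compound fluorescence.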
A general note: An ELISA detects its analyte on a solid surface through an enzyme-linked reagent.

A further experiment concerns VZV strain Ellen. Nature of the experiment: VZV antiviral (ELISA) assay in human foreskin fibroblast cells. The experiment is classed as cell-based, varicella-zoster virus. The method, boiled down:
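HFF cells infected with VZV Ellen (MOI <0.1) overnight, then plated at 3.5x10^4 cells/well with compound in DMEM + 2% FBS for three days at 37°C, 5% CO2. Viral glycoprotein II quantified by ELISA with β-galactosidase-linked secondary and 4-methylumbelliferyl-galactoside fluorescence (365/450 nm); IC50 versus no-compound fluorescence.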

The mark [2] stands for this setting: Human alphaherpesvirus 1, HSV-1 in Vero cells.
[3] abbreviates: Human alphaherpesvirus 3; VZV strain Ellen in HFF cells; read-out: IC50 (ug/ml) VZV.
Setting [4] is: Human alphaherpesvirus 3, Fibroblast; read-out: % inhibition 10 ug/ml VZV.

`CC(NC(=S)Nc1ccc(NC(=O)c2nccc3ccccc23)c(C#N)c1)c1ccc(F)cc1` (stereo not drawn) [Example 1069, Isoquinoline-1-carboxylic acid (2-cyano-4-{3-[1-(4-fluoro-phenyl)-ethyl]-thioureido}-phenyl)-amide]: the IC50 in experiment [1] is 4 µg/mL (≈ 8.52 µM); in the experiment with HSV-1 (setting [2]) it was greater than 10 µg/mL; in the experiment on VZV strain Ellen (setting [3]), 0.019 µg/mL (≈ 0.0405 µM).
For `COc1cc(NC(=S)NC(C)c2ccc(F)cc2)ccc1NC(=O)c1ccccc1F` (stereo not drawn) [Example 1064, 2-Fluoro-N-(4-{3-[1-(4-fluoro-phenyl)-ethyl]-thioureido}-2-methoxy-phenyl)-benzamide], in that order: 4.5 µg/mL (≈ 10.2 µM), 3.9 µg/mL (≈ 8.83 µM) and 0.04 µg/mL (≈ 0.0906 µM).
For `Cc1cc(NC(=S)NC(C)c2ccc(F)cc2)ccc1NC(=O)c1cc2ccccc2o1` (stereo not drawn) [Example 1073, Benzofuran-2-carboxylic acid (4-{3-[1-(4-fluoro-phenyl)-ethyl]-thioureido}-2-methyl-phenyl)-amide], in that order: 6.3 µg/mL (≈ 14.1 µM), 4.6 µg/mL (≈ 10.3 µM) and 0.47 µg/mL (≈ 1.05 µM).
In the case of `COc1cc(OC)c(NC(=S)Nc2cc(OC)c(NC(=O)c3ccccc3F)cc2OC)cc1Cl` [Example 260, N-{4-[3-(5-Chloro-2,4-dimethoxy-phenyl)-thioureido]-2,5-dimethoxy-phenyl}-2-fluoro-benzamide], the IC50 was greater than 10 µg/mL in experiment [1]; greater than 10 µg/mL in the experiment with HSV-1 (Human alphaherpesvirus 1, Vero); 7 µg/mL (≈ 13.5 µM) in the experiment with VZV strain Ellen (Human alphaherpesvirus 3, HFF, read-out: IC50 (ug/ml) VZV). Moreover, in the experiment with VZV strain Ellen (Human alphaherpesvirus 3, Fibroblast, read-out: % inhibition 10 ug/ml VZV), the inhibition at 10 µg/mL turned out to be 18%.
Consider `CC(NC(=S)Nc1ccc(NC(=O)c2ccccc2F)c(C#N)c1)c1ccc(Br)cc1` (stereo not drawn) [Example 1041, N-(4-{3-[1-(4-Bromo-phenyl)-ethyl]-thioureido}-2-cyano-phenyl)-2-fluoro-benzamide], for which the IC50 in experiment [1] is 10.4 µg/mL (≈ 20.9 µM); in the experiment on HSV-1 (setting [2]), greater than 10 µg/mL; in the experiment on VZV strain Ellen (setting [3]) it was 0.096 µg/mL (≈ 0.193 µM).
For `CC(NC(=S)Nc1ccc(NC(=O)c2ccccc2F)c(C(F)(F)F)c1)c1ccc(F)cc1` (stereo not drawn) [Example 1034, 2-Fluoro-N-(4-{3-[1-(4-fluoro-phenyl)-ethyl]-thioureido}-2-trifluoromethyl-phenyl)-benzamide], in that order: 2.6 µg/mL (≈ 5.42 µM), greater than 10 µg/mL and 0.03 µg/mL (≈ 0.0626 µM).
For `Cc1cc(NC(=S)NC(C)c2ccc(F)cc2)ccc1NC(=O)c1nccc2ccccc12` (stereo not drawn) [Example 1072, Isoquinoline-1-carboxylic acid (4-{3-[1-(4-fluoro-phenyl)-ethyl]-thioureido}-2-methyl-phenyl)-amide], in that order: greater than 10 µg/mL, greater than 10 µg/mL and 0.027 µg/mL (≈ 0.0589 µM).
As for `CC(=O)Nc1ccc(NC(=S)Nc2ccc(NC(=O)c3ccccc3)c(Cl)c2)cc1` [Example 400, N-{4-[3-(4-Acetylamino-phenyl)-thioureido]-2-chloro-phenyl}-benzamide], the IC50 (in experiment [1]; with HSV-1 (setting [2]); with VZV strain Ellen (setting [3])) was greater than 10 µg/mL throughout. In addition, the inhibition at 10 µg/mL in the experiment on VZV strain Ellen (setting [4]) came out at 15%.
Turning to `CSc1ccc(NC(=S)Nc2ccc(NC(=O)c3ccccc3F)c(C)c2)cc1Cl` [Example 408, N-{4-[3-(3-Chloro-4-methylsulfanyl-phenyl)-thioureido]-2-methyl-phenyl}-2-fluoro-benzamide], the IC50 in experiment [1] was 6 µg/mL (≈ 13 µM); in the experiment with HSV-1 (setting [2]) it was 0.2 µg/mL (≈ 0.435 µM); in the experiment on VZV strain Ellen (setting [3]), greater than 10 µg/mL. Moreover, the inhibition at 10 µg/mL with VZV strain Ellen (setting [4]) worked out at 56%.
Take `CC(NC(=S)Nc1ccc(NC(=O)c2cc3ccccc3o2)c(C(F)(F)F)c1)c1ccc(F)cc1` (stereo not drawn) [Example 1067, Benzofuran-2-carboxylic acid (4-{3-[1-(4-fluoro-phenyl)-ethyl]-thioureido}-2-trifluoromethyl-phenyl)-amide]: the IC50 amounted to 3.3 µg/mL (≈ 6.58 µM) in experiment [1], 3.8 µg/mL (≈ 7.58 µM) with HSV-1 (setting [2]) and 0.26 µg/mL (≈ 0.518 µM) with VZV strain Ellen (setting [3]).
